# Measurements: US3992391A, “1,3-Disubstituted thiourea compounds and preparation thereof” (priority 1972, dated 1976)
# Counter-ions that a name gives are not always drawn.
# Key:
# [1] = Hypoxia test (rat), reduced pressure, survival time; format: in vivo, rats (wister-strain); conditions: reduced pressure 145 mmHg
# Experimental: (§1) Male mice (dd-strain) and rats (wister-strain) were taken to a closed room which was filled with a gas mixture consisting of 1.5 % oxygen and 98.5 % nitrogen, or was conditioned in reduced atmospheric pressure (145 mmHg). In the other hand, mice and rats were given sodium cyanide (10 mg/kg, i.p.). These animals died after a few minutes in such conditions. 1-(3'-Pyridyl)-3-(2'-hydroxyethyl)thiourea HCl was given 1 hour before these hypoxia tests.
# (§2) In the Tables data mean the increase percent of the survival time to that of control.
# [2] = tested on: cerebral carbohydrate and lactate metabolism; experiment: Brain glycogen and lactate after triethyl tin sulfate cerebral edema; format: in vivo; conditions: rats
# Experimental: (§3) Cerebral edema was induced in rats by a triethyl tin sulfate (5.0 mg/kg, i.p.) made on the whole brain. Edema was measured by the increase in water content, lactate, phosphorylase activity and the decrease in glycogen, Na^+, K^+ - ATPase activity of the whole brain.
# (§4) 1-(3'-Pyridyl)-3-(2'-hydroxyethyl)thiourea HCl was given 1 hour before and 24, 48 hours after the lesion treatment and the animals were killed by decapitation 72 hours after the lesion treatment.
# [3] = Haemodynamic action in anesthetized dogs; format: in vivo
# Experimental: To study of 1-(3'-pyridyl)-3-(2'-hydroxyethyl)thiourea HCl on the haemodynamic action, five dogs of either sex were used under sodium pentobarbital anesthesia (30 mg/kg i.v.), the common carotid artery blood flow and the femoral artery blood flow were measured by the electromagnetic flow meter and the systolic blood pressure in the femoral artery was recorded with the pressure transducer.
# [4] = tested on: distribution of ^14 C - glucose to brain; experiment: Distribution of ^14 C - glucose(U) to brain; format: in vivo, mouse; conditions: for ^14 C-glucose, Brain / ^14 C-glucose, Brain/Plasma / ^14 C-glucose, Plasma: mouse, 300 mg/kg oral
# Experimental: ^14 C - glucose(U) was given intravenously (1.0 μC/mouse), and the animals were killed by decapitation 10 minutes after ^14 C - glucose administration. 1-(3'-Pyridyl)-3-(2'-hydroxyethyl)thiourea HCl was given orally 300 mg/kg before ^14 C - glucose administration.
# [5] = tested on: Na^+, K^+ - ATPase; experiment: Brain Na^+, K^+ - ATPase after triethyl tin sulfate cerebral edema; format: in vivo; conditions: rats
# Experimental: as §3, §4
# [6] = Prolonging effect on lethal time under various hypoxic conditions (mice and rats, all tests together); format: in vivo, mice (dd-strain) and rats (wister-strain); conditions: 100, 300 mg/kg p.o., 100 mg/kg s.c., and 30 mg/kg i.v.
# [7] = tested on: cardiac carbohydrate, lactate and fat; experiment: Cardiac carbohydrate, lactate and fat under the influence of isoproterenol in an anoxic condition; format: in vivo, male rats of wister-strain; conditions: rats, 1.0 mg/kg i.v.
# Experimental: Male rats of wister - strain served as experimental animals. Isoproterenol in a dose of 3.0 μg/kg was injected intravenously to the animals, and 5 minutes later, the rat was taken to a closed room which was filled with a mixture gas consisting of 5 % oxygen and 95 % nitrogen. After the rat was kept in the above mentioned gas chamber for 5 minutes, they were killed by cervical dislocation. The anoxic state of the heart was measured by the cardiac carbohydrate (glycogen, pyruvate), lactate and fat [non-esterifiedfatty acid (hereinafter, referred to as NEFA), triglyceride (hereinafter, referred to as TG)].
# [8] = tested on: phosphorylase; experiment: Cerebral phosphorylase after cold injury (freezing lesion cerebral edema); format: in vivo; conditions: rats
# Experimental: (§5) Cerebral edema was induced in rats by a freezing lesion (dry ice) made on the exposed dura of unilateral hemisphere. Edema was measured by the increase in water content of gray and white matter, the increase in phosphorylase activity and the decrease in Na^+, K^+ - ATPase activity of the injured brain. 1-(3'-Pyridyl)-3-(2'-hydroxyethyl)thiourea HCl was given 1 hour before and 24 hours after, and the animals were killed by decapitation 48 hours after the lesion treatment.
# [9] = Cerebral water content after cold injury (freezing lesion cerebral edema); format: in vivo; conditions: rats
# Experimental: as §5
# [10] = tested on: phosphorylase; experiment: Brain phosphorylase after triethyl tin sulfate cerebral edema; format: in vivo; conditions: rats
# Experimental: as §3, §4
# [11] = Hypoxia test (rat), KCN, survival time; format: in vivo, rats (wister-strain); conditions: KCN 10 mg/kg i.p.
# [12] = Hypoxia test (rat), normal pressure, survival time; format: in vivo, rats (wister-strain); conditions: 1.5 % O2 + 98.5 % N2
# Experimental: as §1, §2
# [13] = heart, 5 minutes before isoproterenol
# [14] = heart, 10 minutes before isoproterenol
# [15] = heart, 30 minutes before isoproterenol
# [16] = heart, 60 minutes before isoproterenol
smiles,measurement,setting,value
OCCNC(=S)Nc1cccnc1 [1-(3'-pyridyl)-3-(2'-hydroxyethyl)thiourea hydrochloride],increase percent of the survival time to that of control,[1]; 30 mg/kg i.v.,135%
same,increase percent of the survival time to that of control,[1]; 100 mg/kg s.c.,132%
same,Glycogen,[2]; 30 mg/kg p.o.,1.03 mg/g
same,Lactate,[2]; 30 mg/kg p.o.,72.5 µg/g
same,Glycogen,[2]; 100 mg/kg p.o.,1.17 mg/g
same,Lactate,[2]; 100 mg/kg p.o.,65.5 µg/g
same,Glycogen,[2]; 300 mg/kg p.o.,1.27 mg/g
same,Lactate,[2]; 300 mg/kg p.o.,61.0 µg/g
same,effect on the decrease in glycogen level of the injured brain,[2]; 100 and 300 mg/kg orally,antagonized
same,effect on the increase in lactate level of the injured brain,[2]; 100 and 300 mg/kg orally,antagonized
same,haemodynamic effects in comparison with papaverine hydrochloride,[3],relatively weak
same,action to the common carotid artery blood flow,[3]; 0.1 - 1.0 mg/kg intra-common carotid artery,12 - 39%
same,carotid artery blood flow increase,[3]; 3 - 30 mg/kg intravenously,6 - 24%
same,femoral artery blood flow increase,[3]; 3 - 30 mg/kg intravenously,4 - 18%
same,blood pressure decrease,"[3]; 3 - 30 mg/kg intravenously, systolic, femoral artery",8 - 14%
same,distribution of ^14 C - glucose to brain,"[4]; 300 mg/kg orally, given 60 - 120 minutes before ^14 C - glucose",increased
same,"^14 C-glucose, Brain",[4]; 30 min before ^14 C-glucose,88.90 ± 12.69 × 10^3 dpm/g
same,"^14 C-glucose, Brain/Plasma",[4]; 30 min before ^14 C-glucose,2.52 ± 0.59
same,"^14 C-glucose, Plasma",[4]; 30 min before ^14 C-glucose,35.22 ± 2.36 × 10^3 dpm/ml
same,"^14 C-glucose, Brain",[4]; 60 min before ^14 C-glucose,93.76 ± 5.33 × 10^3 dpm/g
same,"^14 C-glucose, Brain/Plasma",[4]; 60 min before ^14 C-glucose,2.48 ± 0.44
same,"^14 C-glucose, Plasma",[4]; 60 min before ^14 C-glucose,37.88 ± 3.15 × 10^3 dpm/ml
same,"^14 C-glucose, Brain",[4]; 120 min before ^14 C-glucose,96.80 ± 6.80 × 10^3 dpm/g
same,"^14 C-glucose, Brain/Plasma",[4]; 120 min before ^14 C-glucose,2.69 ± 0.15
same,"^14 C-glucose, Plasma",[4]; 120 min before ^14 C-glucose,35.93 ± 0.95 × 10^3 dpm/ml
same,ATPase,[5]; 30 mg/kg p.o.,1.146 μ moles Pi/g/hr
same,ATPase,[5]; 100 mg/kg p.o.,1.193 μ moles Pi/g/hr
same,ATPase,[5]; 300 mg/kg p.o.,1.246 μ moles Pi/g/hr
same,"effect on the decrease in Na^+, K^+ - ATPase activity of the injured brain",[5]; 100 and 300 mg/kg orally,antagonized
same,survival in comparison with the survival time of each control group,[6],survived twice or more
same,effect on the increase in NEFA level,[7]; heart,antagonized
same,effect on the increase in lactate level,[7]; heart,antagonized
same,effect on the increase in pyruvate level,[7]; heart,antagonized
same,Glycogen,[7]; [13],5.68 ± 0.45 mg/g
same,Lactate,[7]; [13],123.2 ± 10.7 µg/g
same,NEFA,[7]; [13],4.26 ± 0.35 µM/g
same,Pyruvate,[7]; [13],38.4 ± 2.42 µg/g
same,TG,[7]; [13],2.15 ± 0.21 mg/g
same,Glycogen,[7]; [14],6.05 ± 0.51 mg/g
same,Lactate,[7]; [14],95.1 ± 8.2 µg/g
same,NEFA,[7]; [14],4.12 ± 0.29 µM/g
same,Pyruvate,[7]; [14],29.5 ± 3.15 µg/g
same,TG,[7]; [14],1.98 ± 0.13 mg/g
same,Glycogen,[7]; [15],6.97 ± 0.41 mg/g
same,Lactate,[7]; [15],92.5 ± 9.7 µg/g
same,NEFA,[7]; [15],3.87 ± 0.32 µM/g
same,Pyruvate,[7]; [15],25.2 ± 2.07 µg/g
same,TG,[7]; [15],1.87 ± 0.19 mg/g
same,Glycogen,[7]; [16],5.92 ± 0.62 mg/g
same,Lactate,[7]; [16],140.6 ± 12.3 µg/g
same,NEFA,[7]; [16],4.58 ± 0.36 µM/g
same,Pyruvate,[7]; [16],39.3 ± 2.76 µg/g
same,TG,[7]; [16],2.25 ± 0.18 mg/g
same,effect on the decrease in cardiac glycogen content,[7],antagonized
same,significance of the antagonizing effect,[7]; administered 10 - 30 minutes before isoproterenol,significantly
same,Phosphorylase A/T × 100 (Active phosphorylase/Total phosphorylase),[8]; 100 mg/kg p.o.,68.5 ± 2.5
same,"Phosphorylase, Active",[8]; 100 mg/kg p.o.,0.242 ± 0.019 units/g
same,Phosphorylase A/T × 100 (Active phosphorylase/Total phosphorylase),[8]; 300 mg/kg p.o.,66.4 ± 2.7
same,"Phosphorylase, Active",[8]; 300 mg/kg p.o.,0.220 ± 0.057 units/g
same,effect on the increase in phosphorylase activity,[8]; 300 mg/kg p.o.,protective effect
same,"H2O, Gray matter",[9]; 100 mg/kg p.o.,81.5%
same,"H2O, White matter",[9]; 100 mg/kg p.o.,80.3%
same,effect on the increase in water content,[9]; 300 mg/kg p.o.,protective effect
same,"H2O, Gray matter",[9]; 300 mg/kg p.o.,79.7%
same,"H2O, White matter",[9]; 300 mg/kg p.o.,79.5%
same,Phosphorylase A/T × 100 (Active phosphorylase/Total phosphorylase),[10]; 30 mg/kg p.o.,73.3
same,"Phosphorylase, Active",[10]; 30 mg/kg p.o.,0.197 units/g
same,Phosphorylase A/T × 100 (Active phosphorylase/Total phosphorylase),[10]; 100 mg/kg p.o.,71.5
same,"Phosphorylase, Active",[10]; 100 mg/kg p.o.,0.192 units/g
same,Phosphorylase A/T × 100 (Active phosphorylase/Total phosphorylase),[10]; 300 mg/kg p.o.,67.8
same,"Phosphorylase, Active",[10]; 300 mg/kg p.o.,0.187 units/g
same,increase percent of the survival time to that of control,[11]; 30 mg/kg i.v.,174%
same,increase percent of the survival time to that of control,[11]; 30 mg/kg p.o.,45%
same,increase percent of the survival time to that of control,[11]; 100 mg/kg p.o.,116%
same,increase percent of the survival time to that of control,[11]; 100 mg/kg s.c.,169%
same,increase percent of the survival time to that of control,[11]; 300 mg/kg p.o.,187%
same,increase percent of the survival time to that of control,[12]; 30 mg/kg i.v.,148%
same,increase percent of the survival time to that of control,[12]; 30 mg/kg p.o.,36%
same,increase percent of the survival time to that of control,[12]; 100 mg/kg p.o.,75%
same,increase percent of the survival time to that of control,[12]; 100 mg/kg s.c.,192%
same,increase percent of the survival time to that of control,[12]; 300 mg/kg p.o.,153%
